This note sets out measurements from a melting point compilation (Tetko et al.).

As usually defined, the melting point is the temperature of the solid-liquid transition. Turning to `ON=Cc1ccccc1Cl`, the melting point lay in the range of 72 to 77 °C.

In turn, `Nc1ccc2c(c1)C(=O)c1ccccc1C2=O` yielded a melting point of 304 °C.

`Nc1ccc(Br)c(Cl)c1`: the melting point stood at 74 °C. The result for `CCCCOc1ccc(OCCCC)cc1` reads 45.5 °C; that for `Clc1ccccc1-c1nnc(-c2ccccc2Cl)nn1`, 183 °C; that for `O=C(Cl)OCC(Cl)(Cl)Cl`, 1 °C. For the molecule `NC(=S)Nc1ccc(I)cc1`, the melting point lay in the range of 183 to 184 °C.

Molecule `C#CCC1(CC#C)C(=O)OC(C)(C)OC1=O` came in with a melting point of 135 to 137 °C. Take `FC(F)(F)C(F)(F)C(F)(F)C(F)(F)C(F)(F)C(F)(F)C(F)(F)C(F)(F)C(F)(F)F`: the melting point is -16 °C. The value for `COC1=CC(=O)OC(C=Cc2ccccc2)C1` (stereo not drawn) was 106 °C; that for `COC(=O)[C@H]1C[C@]2(Sc3ccccc3)O[C@@]1(c1ccc(OC)cc1)c1c2cc(Cl)nc1Cl` was 118 °C. The value for `O=[N+]([O-])c1ccc2c(O)c(-c3ccc(-c4[nH]c5cc([N+](=O)[O-])ccc5c4O)cc3)[nH]c2c1` was 360 °C. `Clc1cccc(C(Cl)(Cl)Cl)c1` gave a melting point of 0.6 °C. `ON=C(Cl)c1c(Cl)cccc1Cl` had a melting point of 85 to 89 °C. The result for `CCOC(=O)C1=C(N)n2nc(C(F)(F)F)nc2NC1c1ccc(Cl)cc1` (stereo not drawn) reads 198 °C; that for `Nc1cccc(S(=O)(=O)N2CCOCC2)c1`, 132 to 135 °C; that for `Brc1ccc2c(c1)OCOC2`, 49 to 51 °C. The result for `FC(F)(F)C(F)(F)N(C(F)(F)C(F)(F)F)C(F)(F)C(F)(F)F` reads -110 °C. Molecule `CCOC(=O)c1c(SC)nn(C(=O)NNc2ccccc2)c1N` returned a melting point of 205 °C. The value for `O=[N+]([O-])c1ccc2c3c(cccc13)-c1ccccc1-2` was 153 to 157 °C; that for `Oc1ccccc1N=CC=Nc1ccccc1O` was 201 to 205 °C. The result for `OC1COC(O)C(O)C1O` (stereo not drawn) reads 152 to 160 °C; that for `CNC1=C(c2cccc(C(F)(F)F)c2)C(=O)C(c2ccccc2)O1` (stereo not drawn), 148 °C.

In the case of `COC(=O)C1=C(C(=O)OC)[C@@H]2C=C[C@H]1c1cc3ccccc3c(-c3ccccc3)c12`, the melting point amounted to 219 °C.

As to `O=[N+]([O-])c1ccc(C=Cc2ccc([N+](=O)[O-])cc2)cc1`, the melting point was 183 °C.

As to `O=[N+]([O-])c1cc(F)c(F)cc1F`, the melting point was -11 °C.

As to `C=CC(=O)N1CCN(C(=O)C=C)CC1`, the melting point turned out to be 93 °C. The value for `O=[N+]([O-])c1ccc(Cl)nc1Cl` was 64 °C; that for `Cc1nc(NC(=N)N)sc1Br` was 203 to 205 °C. The value for `Nc1ccc(C=Cc2nc3ccccc3[nH]2)cc1` was 225 °C. The result for `CC1C(=O)CCCC1=O` reads 206 °C; that for `CN(C)c1ccc(C2Nn3c(nnc3-c3ccc([N+](=O)[O-])cc3)S2)cc1` (stereo not drawn), 176 °C. As to `Cc1ccc(F)cc1C#N`, the melting point lay within 43 to 45 °C.

As for `COC(=O)c1ccc(N)c(N)c1`, the melting point fell in the range of 108 to 109 °C. In turn, `O=C(OCCCl)OCCCl` displayed a melting point of 8 °C.

On to `Cc1ccc(C=NC2=NC(C(F)(F)F)N=N2)cc1` (stereo not drawn), for which the melting point worked out at 208 °C. The result for `CCCCCCCCCCCC=O` reads 44.5 °C; that for `CCCCCC(=O)OC`, -71 °C. Regarding `CC(=O)[C@H]1CC[C@H]2[C@@H]3CC=C4C[C@@H](OC(=O)CCC(=O)O)CC[C@]4(C)[C@H]3CC[C@]12C`, the melting point amounted to 180 °C.

The molecule `CC(C)(C)C(=O)Oc1ccc([N+](=O)[O-])cc1` showed a melting point of 92 to 96 °C. The value for `CCCCCCCCCCCCCC=CC(O)C(CO)NC(=O)CCCCCCCCCCCCCCC` (stereo not drawn) was 94 to 95 °C. Turning to `Cc1nsc(N)n1`, the melting point was 202 to 209 °C. In turn, `OCCN1CCN(c2ncc(Cl)cc2C(F)(F)F)CC1` gave a melting point of 58 to 59 °C.
